These results are taken from US8030547B2, “Gene coding for acetolactate synthase” (priority 2002, dated 2011).

For test [1], the system named is mutant ALS protein of Sr line. Kind of test: Herbicide sensitivity of partially purified ALS protein (ALS activity inhibition), Sr line. As to conditions: I50 of the resistant mutant divided by I50 of the wild type. It is filed as biochemical, Oryza sativa var. Kinmaze. The method, then:
(§1) First, 200 g or more of resistant mutant was prepared by a liquid culture method (no supplementation with bispyribac-sodium), using a composition as shown in Table 3 excluding Gelrite. Then, about 150 g of the resistant mutant was homogenized using Hiscotron in a volume of buffer-1 [100 mM potassium phosphate buffer (pH 7.5) containing 20% (v/v) glycerol, […] thiamin pyrophosphate (TPP), 10 μM flavin adenine dinucleotide (FAD), 0.5 mM MgCl2, and a volume of polyvinyl polypyrrolidone one-tenth that of tissue volume] 3-fold greater than tissue volume. The homogenate was filtered through nylon gauze, and then centrifuged at 15000×g for 20 minutes. Ammonium sulfate was added to the centrifuged supernatant to 50% saturation, and then allowed to stand in ice for approximately 1 hour. The mixture was again centrifuged at 15000×g for 20 minutes, and then the precipitated fraction was dissolved in approximately 30 ml of buffer-2 [10 mM Tris hydrochloric acid buffer (pH 7.5) containing 20% (v/v) glycerol, 0.5 mM TPP and 0.5 mM MgCl2]. The mixture was again centrifuged at 15000×g for 20 minutes, and then the supernatant fraction was applied to a Sephadex G-25 (Amersham Bioscience). About 40 ml of the fraction that had passed through the column was collected as a crude enzyme solution.
(§2) Next, the protein concentration of the crude enzyme solution was measured by the Bradford method according to the manual of Bio-Rad Protein Assay. The crude enzyme solution was then filtered through a Whatman filter (Whatman), and then the crude enzyme solution in an appropriate protein amount (10 to 15 ml) was applied to three vertically-connected HiTrap Q columns (Amersham Bioscience) using a FPLC device (Amersham Bioscience). After protein component was adsorbed using HiTrap Q, unadsorbed fractions were washed out using buffer-2 having a volume 3 to 5 fold greater than the bed volume. Then, the adsorbed protein component was eluted using an eluate having a volume 10 fold greater than the bed volume (150 ml). Here, the eluate was prepared by dissolving KCl with a linear concentration gradient (0 to 0.4 M) into buffer-2. The eluate containing the eluted protein component was apportioned, 5 ml each, into a plurality of test tubes for apportioning. Further, to stabilize ALS protein contained in the eluted protein component, 0.5 ml of buffer-2 containing 20 mM sodium pyruvate had been previously added to each test tube for apportioning.
(§3) ALS activity resulting from the mutant ALS protein contained in the eluted fractions apportioned into each test tube for apportioning was measured as follows. A reaction solution to be used in a measurement reaction was prepared by mixing an eluted fraction to be measured with a solution comprising 20 mM sodium pyruvate, 0.5 mM TPP, 0.5 mM MgCl2, 10 μM FAD and 20 mM potassium phosphate buffer (pH 7.5). One ml of this reaction solution was used. After the eluted fraction to be measured was added, the measurement reaction was performed at 30° C. for 40 to 60 minutes. Then, the reaction was stopped by addition of 0.1 ml of 6N sulfuric acid (or 0.25 N sodium hydroxide).
(§4) After the reaction was stopped, the reaction solution was incubated at 60° C. for 10 minutes, thereby converting acetolactate contained in the reaction solution to acetoin.
(§5) Then, to quantify acetoin contained in the reaction solution, 1 ml of 0.5% (w/v) creatine and 1 ml of 5% (w/v) α-naphthol dissolved in 2.5 N sodium hydroxide was added to the reaction solution, followed by incubation at 37° C. for 10 minutes. Acetoin was then quantified by color comparison of the absorbance (at 525 nm) of the reaction solution, thereby evaluating ALS activity. In addition, since the reaction solution contained a small amount of sodium pyruvate, reaction time 0 was used as control.
(§6) Using the enzyme solution containing the mutant ALS protein, sensitivity of the mutant ALS protein to bispyribac-sodium, chlorsulfuron and imazaquin was examined. […]

The target in test [2] is T1, mutant ALS protein of Sr line (Oryza sativa subsp. japonica, UniProt Q6K2E8).
T1 construct: other: partially purified ALS, 30° C., probit analysis
T1 sequence (Q6K2E8 whole entry W548L/S627I, form open): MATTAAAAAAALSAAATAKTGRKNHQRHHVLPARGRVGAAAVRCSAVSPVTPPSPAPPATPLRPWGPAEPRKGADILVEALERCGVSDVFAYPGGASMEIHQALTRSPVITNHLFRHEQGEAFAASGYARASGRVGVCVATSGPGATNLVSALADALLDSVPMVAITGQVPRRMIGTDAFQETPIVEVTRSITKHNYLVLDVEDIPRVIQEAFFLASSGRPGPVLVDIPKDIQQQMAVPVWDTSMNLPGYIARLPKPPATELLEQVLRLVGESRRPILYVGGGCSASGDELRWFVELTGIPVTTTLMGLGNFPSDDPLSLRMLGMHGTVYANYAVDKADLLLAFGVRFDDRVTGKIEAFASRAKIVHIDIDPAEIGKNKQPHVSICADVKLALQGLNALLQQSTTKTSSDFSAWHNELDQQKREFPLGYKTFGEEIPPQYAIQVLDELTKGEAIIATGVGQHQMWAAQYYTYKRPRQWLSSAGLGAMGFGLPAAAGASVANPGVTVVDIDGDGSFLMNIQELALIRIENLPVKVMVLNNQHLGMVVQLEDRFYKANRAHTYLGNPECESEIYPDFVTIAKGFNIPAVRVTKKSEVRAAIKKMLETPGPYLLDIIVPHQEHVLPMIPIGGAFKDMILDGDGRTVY
The description is as above. Format: biochemical, Oryza sativa var. Kinmaze. As to conditions: read-out: I50 (nM) Sr; partially purified ALS, 30° C., probit analysis. The method, then:
as §1, §2, §3, §4, §5, §6

In test [3] the test system is wild type (Kinmaze) rice culture cells. Nature of the test: Growth of rice culture cells (relative wet weight of callus) in the presence of herbicide, wild type. Format: cell-based, Oryza sativa var. Kinmaze. As for the experimental part:
Approximately 1.5 g (wet weight) of the resistant mutant was transplanted into a 200 ml Erlenmeyer flask supplemented with 50 ml of a MS-2,4-D liquid medium and bispyribac-sodium at a certain concentration, followed by culturing at approximately 27° C. for a certain period. The wet weight of the callus was measured periodically. The relative amount of increase was determined based on the wet weight of the transplanted resistant mutant. In addition, the experiment was performed three times with different bispyribac-sodium concentrations, and the standard error was calculated. FIGS. 3 to 6 show the relation between changes in bispyribac-sodium concentration and the relative weight on day 8 or 12 in the resistant mutant. As a control, a similar experiment was conducted using the wild type (Kinmaze).
Also, in the case of using chlorsulfuron instead of bispyribac-sodium, the growth rates of the wild type and the resistant mutants were measured as described above. […] Further, FIGS. 9 to 12 show the relation between changes in chlorsulfuron concentration and relative weight on day 8 or 10 in the resistant mutants, that is, Rb line, Sr line, Ga line and Vg line.

The subject of test [4] is Ga line resistant mutant rice culture cells. Kind of test: Growth of rice culture cells (relative wet weight of callus) in the presence of herbicide, Ga line. Format: cell-based, Oryza sativa var. Kinmaze. As for the experimental part: (§7) Next, endosperm portions were removed from the callus induced on the medium, and then subculture was performed. Then, part of the obtained calli was sub-cultured, that is, cultured successively once per two weeks in a liquid medium (the composition is the same as in that shown in Table 3, but not supplemented with Gelrite) supplemented with 1 μM bispyribac-sodium (one type of PC herbicides). Two to 6 weeks later the culture cells started to wither. About 2 months later, a plurality of non-discolored cell masses that were thought to be conducting cell division were obtained from among culture cell populations most of which had died and became discolored brown. These cell masses were isolated and cultured, so that a plurality of cell lines that can proliferate in the presence of 2 μM bispyribac-sodium were obtained. […]
(§8) Approximately 1.5 g (wet weight) of the resistant mutant was transplanted into a 200 ml Erlenmeyer flask supplemented with 50 ml of a MS-2,4-D liquid medium and bispyribac-sodium at a certain concentration, followed by culturing at approximately 27° C. for a certain period. The wet weight of the callus was measured periodically. The relative amount of increase was determined based on the wet weight of the transplanted resistant mutant. In addition, the experiment was performed three times with different bispyribac-sodium concentrations, and the standard error was calculated. […]

In test [5] the test system is Vg line resistant mutant rice culture cells. Nature of the test: Growth of rice culture cells (relative wet weight of callus) in the presence of herbicide, Vg line. Format: cell-based, Oryza sativa var. Kinmaze. The method, then: as §7, §8
For test [6], the system named is Rb line resistant mutant rice culture cells. Kind of test: Growth of rice culture cells (relative wet weight of callus) in the presence of herbicide, Rb line. Format: cell-based, Oryza sativa var. Kinmaze. As for the experimental part:
as §7, §8

Setting [7] is: group supplemented with 1 nM herbicide, day 8 (bispyribac-sodium) or day 9 (chlorsulfuron).
[8] abbreviates: group supplemented with 10 μM, day 8 or 12.

With `CC(C)C1(C)N=C(c2nc3ccccc3cc2C(=O)O)NC1=O` (stereo not drawn) [imazaquin], the “RS ratio Sr” value in test [1] is 11.3. In addition, the IC50 in test [2] was determined as 16700 nM.

`COc1nc(C)nc(NC(=O)NS(=O)(=O)c2ccccc2Cl)n1` [chlorsulfuron]: the “growth of the wild type (relative weight)” value in test [3] (setting [7]) is reported as “inhibited”. The “growth of Ga line on addition of herbicide (relative weight)” value in test [4] (day 8 or 10) is recorded as “not inhibited so much”. For the same molecule, the “RS ratio Sr” value in test [1] is recorded as 5.36. For the same molecule, in test [2], the IC50 was determined as 92.8 nM. The “growth of Vg line on addition of herbicide (relative weight)” value in test [5] (day 8 or 10) is “not inhibited so much”. Moreover, the “growth of Rb line on addition of herbicide (relative weight)” value in test [6] (day 8 or 10) is on record as “not inhibited so much”.

In the case of `COc1cc(OC)nc(Oc2cccc(Oc3nc(OC)cc(OC)n3)c2C(=O)O)n1` [bispyribac-sodium], the “growth of the wild type (relative weight)” value in test [3] (setting [7]) was “not inhibited”; in test [3] (group supplemented with 10 nM or more, day 8), “inhibited”. For the same molecule, in test [4] (setting [8]), the “growth of Ga line (relative weight)” value was “almost none of the growth”. For the same molecule, the “RS ratio Sr” value in test [1] was determined as 74.8. In test [2], the IC50 turned out to be 421 nM. Further, the “effect on the growth of Vg line” value in test [5] (compared with wild type, day 8 or 12) is listed as “smaller than that in the wild type”. Also, the “growth of Rb line (relative weight)” value in test [6] (setting [8]) was “almost none of the growth”.
